Laboratory results reported in US20210045385A1, “PYRIDAZINONE-SUBSTITUTED KETOXIMES AS HERBICIDES” (FMC Corporation, priority 2018, published 2021).

How the values were obtained:
Assay type in all cases: in vivo
[1] = tested on: Italian ryegrass (Lolium multiflorum); assay: Test A preemergence, visual plant response rating; settings: for Ryegrass, Italian plant response rating: 125 g ai/ha, preemergence, 0 to 100 scale, 0 no effect, 100 complete control; for Ryegrass, Italian plant response rating (0 to 100 scale): 500 g ai/ha Preemergence, approx. 10 days
In short: (§1)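 Compared with untreated controls, treated plants received a visual injury score on a 0–100 scale around 10 days after application. The compound, in a non-phytotoxic solvent with surfactant, was given as a preemergence soil spray or postemergence at the one- to two-leaf stage.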

[2] = tested on: barnyardgrass (Echinochloa crus-galli); assay: Test A preemergence, visual plant response rating; settings: for Barnyardgrass plant response rating: 125 g ai/ha, preemergence, 0 to 100 scale, 0 no effect, 100 complete control; for Barnyardgrass plant response rating (0 to 100 scale): 500 g ai/ha Preemergence, approx. 10 days
In short: as §1

[3] = tested on: foxtail, giant (giant foxtail, Setaria faberii); assay: Test A preemergence, visual plant response rating; settings: for Foxtail, Giant plant response rating: 125 g ai/ha, preemergence, 0 to 100 scale, 0 no effect, 100 complete control; for Foxtail, Giant plant response rating (0 to 100 scale): 500 g ai/ha Preemergence, approx. 10 days
In short: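 Preemergence: seeds in loam/sand blend given directed soil spray of compound in non-phytotoxic solvent with surfactant. Postemergence: plants 2–10 cm, one- to two-leaf stage, sprayed with same formulation. Visual injury rated vs untreated controls after ~10 days in greenhouse, 0 (no effect) to 100 (complete control).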

kochia (Kochia scoparia) [4] = assay: Test A preemergence, visual plant response rating; settings: for Kochia plant response rating: 125 g ai/ha, preemergence, 0 to 100 scale, 0 no effect, 100 complete control; for Kochia plant response rating (0 to 100 scale): 500 g ai/ha Preemergence, approx. 10 days
In short: as §1

[5] = tested on: pigweed (Amaranthus retroflexus); assay: Test A preemergence, visual plant response rating; settings: for Pigweed plant response rating: 125 g ai/ha, preemergence, 0 to 100 scale, 0 no effect, 100 complete control; for Pigweed plant response rating (0 to 100 scale): 500 g ai/ha Preemergence, approx. 10 days
In short: as §1

[6] = tested on: ragweed (common ragweed, Ambrosia elatior); assay: Test A preemergence, visual plant response rating; settings: for Ragweed plant response rating: 125 g ai/ha, preemergence, 0 to 100 scale, 0 no effect, 100 complete control; for Ragweed plant response rating (0 to 100 scale): 500 g ai/ha Preemergence, approx. 10 days
In short: as §1

[7] = tested on: Italian ryegrass (Lolium multiflorum); assay: Test A postemergence, visual plant response rating; settings: for Ryegrass, Italian plant response rating (0 to 100 scale): 500 g ai/ha, postemergence, 0 is no effect, 100 is complete control; for Ryegrass, Italian plant response rating: Postemergence, 125 g ai/ha, 0 to 100 scale (0 no effect, 100 complete control)
In short: as §1

[8] = tested on: barnyardgrass (Echinochloa crus-galli); assay: Test A postemergence, visual plant response rating; settings: for Barnyardgrass plant response rating (0 to 100 scale): 500 g ai/ha, postemergence, 0 is no effect, 100 is complete control; for Barnyardgrass plant response rating: Postemergence, 125 g ai/ha, 0 to 100 scale (0 no effect, 100 complete control)
In short: as §1

[9] = tested on: blackgrass (Alopecurus myosuroides); assay: Test A postemergence, visual plant response rating; settings: for Blackgrass plant response rating (0 to 100 scale): 500 g ai/ha, postemergence, 0 is no effect, 100 is complete control; for Blackgrass plant response rating: Postemergence, 125 g ai/ha, 0 to 100 scale (0 no effect, 100 complete control)
In short: as §1

corn (Zea mays) = assay: Test A postemergence, visual plant response rating; settings: for Corn plant response rating (0 to 100 scale): 500 g ai/ha, postemergence, 0 is no effect, 100 is complete control; for Corn plant response rating: Postemergence, 125 g ai/ha, 0 to 100 scale (0 no effect, 100 complete control)
In short: as §1

[10] = tested on: foxtail, giant (giant foxtail, Setaria faberii); assay: Test A postemergence, visual plant response rating; settings: for Foxtail, Giant plant response rating (0 to 100 scale): 500 g ai/ha, postemergence, 0 is no effect, 100 is complete control; for Foxtail, Giant plant response rating: Postemergence, 125 g ai/ha, 0 to 100 scale (0 no effect, 100 complete control)
In short: as §1

[11] = tested on: galium (catchweed bedstraw, Galium aparine); assay: Test A postemergence, visual plant response rating; settings: for Galium plant response rating (0 to 100 scale): 500 g ai/ha, postemergence, 0 is no effect, 100 is complete control; for Galium plant response rating: Postemergence, 125 g ai/ha, 0 to 100 scale (0 no effect, 100 complete control)
In short: as §1

kochia (Kochia scoparia) [12] = assay: Test A postemergence, visual plant response rating; settings: for Kochia plant response rating (0 to 100 scale): 500 g ai/ha, postemergence, 0 is no effect, 100 is complete control; for Kochia plant response rating: Postemergence, 125 g ai/ha, 0 to 100 scale (0 no effect, 100 complete control)
In short: as §1

[13] = tested on: pigweed (Amaranthus retroflexus); assay: Test A postemergence, visual plant response rating; settings: for Pigweed plant response rating (0 to 100 scale): 500 g ai/ha, postemergence, 0 is no effect, 100 is complete control; for Pigweed plant response rating: Postemergence, 125 g ai/ha, 0 to 100 scale (0 no effect, 100 complete control)
In short: as §1

[14] = tested on: ragweed (common ragweed, Ambrosia elatior); assay: Test A postemergence, visual plant response rating; settings: for Ragweed plant response rating (0 to 100 scale): 500 g ai/ha, postemergence, 0 is no effect, 100 is complete control; for Ragweed plant response rating: Postemergence, 125 g ai/ha, 0 to 100 scale (0 no effect, 100 complete control)
In short: as §1

[15] = tested on: wheat (Triticum aestivum); assay: Test A postemergence, visual plant response rating; settings: for Wheat plant response rating (0 to 100 scale): 500 g ai/ha, postemergence, 0 is no effect, 100 is complete control; for Wheat plant response rating: Postemergence, 125 g ai/ha, 0 to 100 scale (0 no effect, 100 complete control)
In short: as §1

[16] = tested on: barnyardgrass (Echinochloa crus-galli); assay: Test B flooded paddy test, visual plant response rating; settings: 250 g ai/ha, Flood, applied to paddy water, 2-leaf stage, evaluated after 13 to 15 days
In short: (§2)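 Rice, umbrella sedge, ducksalad and barnyardgrass grown to 2-leaf stage; pots flooded 3 cm above soil and compound applied directly to paddy water, depth maintained.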

[17] = tested on: ducksalad (Heteranhera limosa); assay: as above; settings: 250 g ai/ha, Flood, applied to paddy water, 2-leaf stage, evaluated after 13 to 15 days
In short: as §2

rice (Oryza sativa) = assay: as above; settings: 250 g ai/ha, Flood, applied to paddy water, 2-leaf stage, evaluated after 13 to 15 days
In short: as §2

[18] = tested on: sedge, umbrella (small-flower umbrella sedge, Cyperus difformis); assay: as above; settings: 250 g ai/ha, Flood, applied to paddy water, 2-leaf stage, evaluated after 13 to 15 days
In short: as §2

Compound | Ryegrass, Italian plant response rating [1] | Ryegrass, Italian plant response rating (0 to 100 scale) [1] | Barnyardgrass plant response rating [2] | Barnyardgrass plant response rating (0 to 100 scale) [2] | Foxtail, Giant plant response rating [3] | Foxtail, Giant plant response rating (0 to 100 scale) [3] | Kochia plant response rating (kochia (Kochia scoparia) [4]) | Kochia plant response rating (0 to 100 scale) (kochia (Kochia scoparia) [4]) | Pigweed plant response rating [5] | Pigweed plant response rating (0 to 100 scale) [5] | Ragweed plant response rating [6] | Ragweed plant response rating (0 to 100 scale) [6] | Ryegrass, Italian plant response rating (0 to 100 scale) [7] | Ryegrass, Italian plant response rating [7] | Barnyardgrass plant response rating (0 to 100 scale) [8] | Barnyardgrass plant response rating [8] | Blackgrass plant response rating (0 to 100 scale) [9] | Blackgrass plant response rating [9] | Corn plant response rating (0 to 100 scale) (corn (Zea mays)) | Corn plant response rating (corn (Zea mays)) | further results
CON=C(c1cc(Cl)ccc1C(F)(F)F)c1c(O)c(C)nn(C)c1=O [Compound 97] | 80 | 100 | 70 | 90 | 80 | 90 | 20 | 50 | 40 | 90 | 60 | 100 | 100 | 90 | 60 | 40 | 90 | 70 | 40 | 0 | Foxtail, Giant plant response rating (0 to 100 scale) [10]: 80; Foxtail, Giant plant response rating [10]: 70; Galium plant response rating (0 to 100 scale) [11]: 90; Galium plant response rating [11]: 70; Kochia plant response rating (0 to 100 scale) (kochia (Kochia scoparia) [12]): 70; Kochia plant response rating (kochia (Kochia scoparia) [12]): 60; Pigweed plant response rating (0 to 100 scale) [13]: 80; Pigweed plant response rating [13]: 80; Ragweed plant response rating (0 to 100 scale) [14]: 80; Ragweed plant response rating [14]: 70; Wheat plant response rating (0 to 100 scale) [15]: 50; Wheat plant response rating [15]: 30; Plant response rating, Barnyardgrass (0 to 100 scale, 0 is no effect, 100 is complete control) [16]: 0; Plant response rating, Ducksalad (0 to 100 scale, 0 is no effect, 100 is complete control) [17]: 0; Plant response rating, Rice (0 to 100 scale, 0 is no effect, 100 is complete control) (rice (Oryza sativa)): 0; Plant response rating, Sedge, Umbrella (0 to 100 scale, 0 is no effect, 100 is complete control) [18]: 0
CON=C(c1c(O)c(C)nn(C)c1=O)c1cccc2cc(Br)ccc12 [Compound 100] | 50 | 100 | 50 | 80 | 60 | 100 | 10 | 60 | 90 | 100 | 100 | 100 | 90 | 80 | 70 | 30 | 90 | 90 | 40 | 10 | Foxtail, Giant plant response rating (0 to 100 scale) [10]: 80; Foxtail, Giant plant response rating [10]: 70; Galium plant response rating (0 to 100 scale) [11]: 90; Galium plant response rating [11]: 90; Kochia plant response rating (0 to 100 scale) (kochia (Kochia scoparia) [12]): 70; Kochia plant response rating (kochia (Kochia scoparia) [12]): 70; Pigweed plant response rating (0 to 100 scale) [13]: 90; Pigweed plant response rating [13]: 90; Ragweed plant response rating (0 to 100 scale) [14]: 100; Ragweed plant response rating [14]: 90; Wheat plant response rating (0 to 100 scale) [15]: 50; Wheat plant response rating [15]: 0; Plant response rating, Barnyardgrass (0 to 100 scale, 0 is no effect, 100 is complete control) [16]: 0; Plant response rating, Ducksalad (0 to 100 scale, 0 is no effect, 100 is complete control) [17]: 0; Plant response rating, Rice (0 to 100 scale, 0 is no effect, 100 is complete control) (rice (Oryza sativa)): 0; Plant response rating, Sedge, Umbrella (0 to 100 scale, 0 is no effect, 100 is complete control) [18]: 0
CON=C(c1c(Cl)ccc(C)c1F)c1c(O)c(C)nn(C)c1=O [Compound 101] | 0 | 40 | 0 | 10 | 0 | 10 | 0 | 10 | 0 | 10 | 20 | 70 | 10 | 0 | 30 | 30 | 30 | 0 | 0 | 0 | Foxtail, Giant plant response rating (0 to 100 scale) [10]: 20; Foxtail, Giant plant response rating [10]: 0; Galium plant response rating (0 to 100 scale) [11]: 80; Galium plant response rating [11]: 80; Kochia plant response rating (0 to 100 scale) (kochia (Kochia scoparia) [12]): 30; Kochia plant response rating (kochia (Kochia scoparia) [12]): 0; Pigweed plant response rating (0 to 100 scale) [13]: 40; Pigweed plant response rating [13]: 10; Ragweed plant response rating (0 to 100 scale) [14]: 60; Ragweed plant response rating [14]: 40; Wheat plant response rating (0 to 100 scale) [15]: 0; Wheat plant response rating [15]: 0; Plant response rating, Barnyardgrass (0 to 100 scale, 0 is no effect, 100 is complete control) [16]: 0; Plant response rating, Ducksalad (0 to 100 scale, 0 is no effect, 100 is complete control) [17]: 0; Plant response rating, Rice (0 to 100 scale, 0 is no effect, 100 is complete control) (rice (Oryza sativa)): 0; Plant response rating, Sedge, Umbrella (0 to 100 scale, 0 is no effect, 100 is complete control) [18]: 0
